Data taken from patent US20210386721A1, “SUBSTITUTED PHENYLPROPENYL PYRIDINE DERIVATIVES, THEIR PREPARATION AND PHARMACEUTICAL APPLICATIONS” (SHANGHAI HAIYAN PHARMACEUTICAL TECHNOLOGY CO., LTD., priority 2019, published 2021).

How the values were obtained:
[1] = molecular target: T1, PD-1/PD-L1 (Homo sapiens, UniProt Q9NZQ7); assay: PD-1/PD-L1 binding assay (HTRF, PPI-HTRF); conditions: HTRF PD1/PD-L1 binding assay kit; 10 nM Tag1-PD-L1; 25° C.
T1 construct: purchased Cisbio 63ADK000CPDPEB
Procedure: Assay 1 PD-1/PD-L1 Binding Assay
DMSO is from Sigma, Cat No: D5879; 384-well small volume plate (white) is from Greiner, Cat No: 784075; Anti-PD1 blocking antibody (IC50: 10 nM) is from Cisbio, Cat No: 64CUS000C-1a; Anti-PDL1 blocking antibody (IC50: 0.3 nM) is from Cisbio, Cat No: 64CUS000C-1b; HTRF PD1/PD-L1 binding assay kit is from Cisbio, Cat No: 63ADK000CPDPEB.
1. Prepare the compound to be tested at 2x concentration into 1× reaction buffer containing 4% DMSO;
2. Tag1-PD-L1 protein and Tag2-PD1 protein were prepared in 1× reaction buffer at concentrations of […] and 10 nM, respectively. The final reaction concentration of the experiment was 10 nM Tag1-PD-L1 and 2 nM […];
3. anti-Tag1-Eu3+ antibody is prepared in 1x concentration detection buffer at a ratio of 1:100;
4. anti-Tag2-XL665 antibody is prepared in 1x concentration detection buffer at a ratio of 1:25; Experimental steps
1. 5 μL of compounds to be tested (2×) was added;
2. 2.5 ul Tag1-PD-L1 protein and 2.5 ul Tag2-PD1 protein were added respectively, and the total reaction system is 10 ul, and reacted at 25° C. for 15 minutes;
3. 5 ul anti-Tag1-Eu3+ antibody and 5 ul anti-Tag2-XL665 antibody were added respectively, and reacted at 25° C. for 16 hours;
4. The fluorescence microplate reader HTRF reading program was used to read two readings at 665 nm and 620 nm, the ratio of the two wavelengths was used to judge the activity of the compound, and the IC50 of the compound to be tested is calculated by XLFIT5.0 (IDBS).

[2] = test system: Jurkat T(PD1 Luc-)/CHOK1(PDL-1); assay: Jurkat T(PD1 Luc-)/CHOK1(PDL-1) cell experiment (luciferase reporter); format: cell-based; conditions: CHO/PD-L1-OKT3 cells co-cultured with Jurkat/PD1-NFAT-Luc cells for 6 hours; Bio-Glo luciferase signal
Procedure: Assay 2 Jurkat T(PD1 Luc-)/CHOK1(PDL-1) Cell Experiment
G418, Sangon Biotech #A100859-0001, Cat Number G108BA0003, 5 ml of deionized water being added into each bottle, store at 4° C.
CHO/PD-L1-OKT3 cells (constructed by referring to Promega's PD-1/PD-L1 Blockade Bioassays system) cultured in F-12K medium (containing 10% FBS, 800 ug/ml G418, 400 ug/ml D Hygromycin B) were planted into a 96-well plate at 2×10^4 per well, and incubated for 24 hours at 37° C. and 5% CO2. part of the medium was removed, and the test compound dissolved in DMSO with a final concentration of 1 uM was added, and DMSO at the same concentration was added into the control cells. Jurkat/PD1-NFAT-Luc cells (constructed by referring to Promega's PD-1/PD-L1 Blockade Bioassays system) were added at 5×10^5 per well at the same time, and cultured for 6 hours. The corresponding luciferase signal was detected by Bio-Glo™ (Promega, G7940) reagent. The EC50 of each compound to be tested was calculated through the non-linear regression of XLfit software.

T1 sequence (Q9NZQ7 19-238 limits assumed): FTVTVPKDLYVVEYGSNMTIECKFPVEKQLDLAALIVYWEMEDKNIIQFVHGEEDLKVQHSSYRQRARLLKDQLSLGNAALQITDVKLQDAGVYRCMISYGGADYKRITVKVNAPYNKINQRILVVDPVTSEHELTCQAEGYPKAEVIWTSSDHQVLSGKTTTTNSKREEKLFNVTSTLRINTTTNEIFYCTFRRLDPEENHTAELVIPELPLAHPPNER

SMILES | IC50 [1] [nM] | EC50 [2] [nM]
COc1cc(/C=C/c2cccc(-c3cccc(NC(=O)c4ccc(CN5CC[C@@H](O)C5)cn4)c3F)c2Cl)c(C(F)(F)F)cc1CN1CC[C@@H](C(=O)O)C1 [Z-96] | < 1 | 10
COc1cc(/C=C/c2cccc(-c3cccc(NC(=O)c4cc(CN5CC[C@@H](O)C5)ccn4)c3C)c2C)c(C(F)(F)F)cc1CN1CC[C@@H](C(=O)O)C1 [Z-120] | 1 | 15
COc1cc(/C=C/c2cccc(-c3cccc(-c4nc5cc(CN6CC[C@@H](O)C6)cc(C#N)c5o4)c3C)c2C#N)c(C(F)(F)F)cc1CN1CC[C@@H](C(=O)O)C1 [Z-43] | 1 | 72
COc1cc(/C=C/c2cccc(-c3cccc(NC(=O)c4ccc(CN5CC[C@@H](O)C5)cn4)c3Cl)c2C)c(C(F)(F)F)cc1CN1CCC(C)(C(=O)O)C1 (stereo partly drawn) [Z-87, 1-(4-((E)-2-(2′-chloro-3′-(5-(((R)-3-hydroxypyrrolidin-1-yl)methyl)picolinamido)-2-methyl-[1,1′-biphenyl]-3-yl)vinyl)-2-methoxy-5-(trifluoromethyl)benzyl)-3-methylpyrrolidine-3-carboxylic Acid] | 1 | 26
COc1cc(/C=C/c2cccc(-c3cccc(NC(=O)c4cc(OC)c(CN5CC[C@@H](O)C5)cn4)c3C)c2C)c(C(F)(F)F)cc1CN1CCC(C(=O)O)CC1 [Z-122] | 1 | 18
COc1cc(/C=C/c2cccc(-c3cccc(NC(=O)c4cc(OC)c(CN5CC[C@@H](O)C5)cn4)c3C)c2C)c(C(F)(F)F)cc1CNC[C@@H](O)CC(=O)O [Z-118, (S)-3-hydroxy-4-((4-((E)-2-(3′-(5-(((R)-3-hydroxypyrrolidin-1-yl)methyl)-4-methoxypicolinamido)-2,2′-dimethyl-[1,1′-biphenyl]-3-yl)vinyl)-2-methoxy-5-(trifluoromethyl)benzyl)amino) butanoic Acid] | 1 | 13
COc1cc(/C=C/c2nccc(-c3cccc(NC(=O)c4ccc(CN5CC[C@@H](O)C5)cn4)c3C)c2C#N)c(C(F)(F)F)cc1CN1CC[C@@H](C(=O)O)C1 [Z-74] | 1 | 51
COc1cc(/C=C/c2cccc(-c3cccc(NC(=O)c4ccc(CN5CC[C@@H](O)C5)cn4)c3C)c2C)c(C(F)(F)F)cc1CN1CC[C@@H](C(=O)O)C1 [Z-84] | 1 | 25
COc1cc(/C=C/c2cccc(-c3cccc(NC(=O)c4nc5c(n4C)CCN(C(C)C)C5)c3C)c2C)c(C(F)(F)F)cc1CN1CC[C@@H](C(=O)O)C1 [Z-134, (R,E)-1-(4-(2-(3′-(5-isopropyl-1-methyl-4,5,6,7-tetrahydro-1H-imidazo[4,5-c]pyridine-2-carboxamido)-2,2′-dimethyl-[1,1′-biphenyl]-3-yl)vinyl)-2-methoxy-5-(trifluoromethyl)benzyl)pyrrolidine-3-carboxylic Acid] | 1 | 91
COc1cc(/C=C/c2ccnc(-c3cccc(-c4nc5cc(CN6CC[C@@H](O)C6)cc(C#N)c5o4)c3C)c2Cl)c(C(F)(F)F)cc1CN1CC[C@@H](C(=O)O)C1 [Z-52] | 1 | 153
Cc1cc(/C=C/c2nccc(-c3cccc(NC(=O)c4ccc(CN5CC[C@@H](O)C5)cn4)c3Cl)c2C#N)c(Cl)cc1CN1CCCC[C@H]1C(=O)O [Z-81] | 1 | 44
COc1cc(/C=C/c2cccc(-c3cccc(NC(=O)c4ccc(CN5CC[C@@H](O)C5)cn4)c3C)c2C)c(C(F)(F)F)cc1CN1CC[C@H](C(=O)O)C1 [Z-97] | < 1 | 2
COc1cc(/C=C/c2cccc(-c3cccc(NC(=O)c4nc5c(n4C)CCN([C@H]4CC[C@H](O)CC4)C5)c3C)c2C)c(C(F)(F)F)cc1CN1CC[C@@H](C(=O)O)C1 [Z-132, (R)-1-(4-((E)-2-(3′-(5-((1r,4r)-4-hydroxycyclohexyl)-1-methyl-4,5,6,7-tetrahydro-1H-imidazo[4,5-c]pyridine-2-carboxamido)-2,2′-dimethyl-[1,1′-biphenyl]-3-yl)vinyl)-2-methoxy-5-(trifluoromethyl)benzyl)pyrrolidine-3-carboxylic Acid] | 1 | 168
COc1cc(/C=C/c2cccc(-c3cccc(NC(=O)c4ccc(CN5CC[C@@H](O)C5)cn4)c3Cl)c2Cl)c(C(F)(F)F)cc1CN1CC[C@@H](C(=O)O)C1 [Z-93] | 2 | 8
COc1cc(/C=C/c2cccc(-c3cccc(-c4nc5cc(CN6CC[C@@H](O)C6)cc(C#N)c5o4)c3C)c2C)c(C(F)(F)F)cc1CN1CCCC[C@H]1C(=O)O [Z-26] | 4 | 39
COc1cc(/C=C/c2cccc(-c3cccc(-c4nc5cc(CN6CC[C@@H](C(=O)O)C6)cc(C#N)c5o4)c3C)c2C)c(C(F)(F)F)cc1CN1CC[C@H](O)C1 [Z-29] | 2 | 109
COc1cc(/C=C/c2cccc(-c3cccc(NC(=O)c4nc5c(n4C)CCN(C)C5)c3Cl)c2C)c(C(F)(F)F)cc1CN1CCCC[C@H]1C(=O)O [Z-108, (S,E)-1-(4-(2-(2′-chloro-3′-(1,5-dimethyl-4,5,6,7-tetrahydro-1H-imidazo[4,5-c]pyridine-2-carboxamido)-2-methyl-[1,1′-biphenyl]-3-yl)vinyl)-2-methoxy-5-(trifluoromethyl)benzyl)piperidine-2-carboxylic Acid] | 2 | 57
COc1cc(/C=C/c2cccc(-c3cccc(-c4nc5cc(CN6CC[C@@H](C(=O)O)C6)cc(C#N)c5o4)c3Cl)c2C)c(C(F)(F)F)cc1CN1CC[C@@H](O)C1 [Z-42] | 1 | 64
COC(=O)[C@@H]1CCN(Cc2cc(C(F)(F)F)c(/C=C/c3cccc(-c4cccc(NC(=O)c5cc(OC)c(CN6CC[C@@H](O)C6)cn5)c4C)c3C)cc2OC)C1 [Z-133] | 2 | 31
COc1cc(/C=C/c2cccc(-c3cccc(-c4nc5cc(CN6CC[C@H](C(=O)O)C6)cc(C#N)c5o4)c3C)c2C)c(C(F)(F)F)cc1CN1CC[C@H](O)C1 [Z-30] | 2 | 104
COc1cc(/C=C/c2ccnc(-c3cccc(-c4nc5cc(CN6CC[C@@H](O)C6)cc(C#N)c5o4)c3C)c2C#N)c(C(F)(F)F)cc1CN1CC[C@@H](C(=O)O)C1 [Z-49] | 1 | 78
COc1cc(/C=C/c2cccc(-c3cccc(NC(=O)c4ccc(CN5CC[C@@H](O)C5)cn4)c3Cl)c2C)c(C(F)(F)F)cc1CN1CCC(C(=O)O)CC1 [Z-89] | 1 | 16
COc1cc(/C=C/c2cccc(-c3cccc(NC(=O)c4ccc(CN5CC[C@@H](O)C5)cn4)c3C)c2C#N)c(C(F)(F)F)cc1CN1CC[C@@H](C(=O)O)C1 [Z-94] | 1 | 10
COc1cc(/C=C/c2cccc(-c3cccc(-c4nc5cc(CN6CC[C@@H](C(=O)O)C6)cc(C#N)c5o4)c3C)c2C)c(C(F)(F)F)cc1CN[C@@H](C)CO [Z-34, (R)-1-((7-cyano-2-(3′-((E)-4-((((S)-1-hydroxypropan-2-yl)amino)methyl)-5-methoxy-2-(trifluoromethyl)styryl)-2,2′-dimethyl-[1,1′-biphenyl]-3-yl)benzo[d]oxazol-5-yl)methyl)pyrrolidine-3-carboxylic Acid] | 2 | 79
COc1cc(/C=C/c2cccc(-c3cccc(-c4nc5c(c(OC)n4)CN(C[C@@H]4CCC(=O)N4)CC5)c3C)c2C)c(C(F)(F)F)cc1CN1CC[C@@H](C(=O)O)C1 [Z-60, (R)-1-(2-methoxy-4-((E)-2-(3′-(4-methoxy-6-(((S)-5-oxopyrrolidin-2-yl)methyl)-5,6,7,8-tetrahydropyrido[4,3-d]pyrimidin-2-yl)-2,2′-dimethyl-[1,1′-biphenyl]-3-yl)vinyl)-5-(trifluoromethyl)benzyl) pyrrolidine-3-carboxylic Acid] | 2 | 79
COc1cc(C(=O)Nc2cccc(-c3cccc(/C=C/c4cc(OC)c(CN5CC[C@@H](C(=O)O)C5)cc4C(F)(F)F)c3C)c2C)ncc1CN1CC[C@@H](O)C1 [Z-117] | 1 | 13
